Consider 1 compound from US20240285626A1, “INFIGRATINIB FOR TREATMENT OF FGFR3-RELATED SKELETAL DISEASES DURING PREGNANCY” (INSERM (INSTITUT NATIONAL DE LA SANTÉ ET DE LA RECHERCHE …, priority 2018, published 2024).

One data set relates to Fgfr3Y367C/+ pups. It is filed as in vivo, mice. How it is done: We treated pregnant female Fgfr3^Neo/Y367C mice that were mated with Cre^CMV/+ male mice (Pannier, S., Couloigner, V., Messaddeq, N., Elmaleh-Bergès, M., Munnich, A., Romand, R., & Legeai-Mallet, L. (2009). Activating Fgfr3 Y367C. mutation causes hearing loss and inner ear defect in a mouse model of chondrodysplasia. Biochimica et Biophysica Acta (BBA)-Molecular Basis of Disease, 1792(2), 140-147.). We injected BGJ398 (4 mg/kg) subcutaneously in 5 pregnant mice at day E14.5 continuing daily through day 1 (after birth). The pregnant mice received 5 injections of BGJ398 before delivery. We applied isofluorane inhalation to the pregnant mice during 20 seconds before the subcutaneous injections. All the pups were analyzed at day 1 after birth. At necropsy, all the long bones were measured and embedded in paraffin and were submitted to histology and immunology.

The subject of data set [1] is Fgfr3Y367C/+ pups exhibiting dwarfism. To be noted: Komla-Ebri et al 2016; Biosse Duplan et al 2016; cited from earlier work.
The mark [2] stands for this setting: Fgfr3Y367C/+ pups, day 1 after birth, mothers 4 mg/kg s.c. daily from E14.5, vs vehicle.
Where [3] appears, read: femur histology, H&E staining, vs vehicle, data not shown.

As to `CCN1CCN(c2ccc(Nc3cc(N(C)C(=O)Nc4c(Cl)c(OC)cc(OC)c4Cl)ncn3)cc2)CC1` [BGJ398, 3-(2,6-dichloro-3,5-dimethoxyphenyl)-1-[6-[4-(4-ethylpiperazin-1-yl)anilino]pyrimidin-4-yl]-1-methylurea], the “skeletal phenotype at birth” value in the data set with Fgfr3Y367C/+ pups (4 Fgfr3Y367C/+ pups that received BGJ398 vs 5 that received vehicle) is given as “improvement of the skeletal phenotype”. Also, the “length of the upper limbs (humerus, ulna, radius), in words” value with Fgfr3Y367C/+ pups (FIG. 1A-C, pups at day 1, mothers 4 mg/kg s.c.) is given as “significant improvement of the length”. In the data set with Fgfr3Y367C/+ pups (FIG. 2A-B, pups at day 1, mothers 4 mg/kg s.c.), the “length of the lower limbs (femur, tibia), in words” value is listed as “improvement of the length”. Further, in the data set on Fgfr3Y367C/+ pups (setting [2]), the “improvement of the size of tibia” value was “+4.32%”, the “increase of the length of humerus” value is reported as “+4.35%” and the “increase of the length of ulna” value is “+6.12%”. Also, in the data set on Fgfr3Y367C/+ pups (setting [3]), the “organization of chondrocytes in the proliferative zone of the growth plate cartilage” value was “well organized” and the “size of the hypertrophic chondrocytes in the hypertrophic zone” value is “increased”. Also, in the data set with Fgfr3Y367C/+ pups (mouse, in vivo), the placental transfer entry was “cross the placenta at therapeutic level”. Further, the “skeletal anomalies that occurred during embryonic stages” value in the data set on Fgfr3Y367C/+ pups (treatment during 5 days in pregnant mice) is reported as “successfully repressed skeletal anomalies”. In data set [1], the “pathological hallmarks of ACH” value was “corrects pathological hallmarks of ACH”.
